{
  "source": "paper PMC5452050",
  "about": "(ACS Omega, 2017)",
  "key": {"FLT3 (N841I)": {"molecular_target": "T1, FLT3 (N841I) (Homo sapiens, UniProt P36888, N841I)", "T1 sequence (P36888 27-993 N841I)": "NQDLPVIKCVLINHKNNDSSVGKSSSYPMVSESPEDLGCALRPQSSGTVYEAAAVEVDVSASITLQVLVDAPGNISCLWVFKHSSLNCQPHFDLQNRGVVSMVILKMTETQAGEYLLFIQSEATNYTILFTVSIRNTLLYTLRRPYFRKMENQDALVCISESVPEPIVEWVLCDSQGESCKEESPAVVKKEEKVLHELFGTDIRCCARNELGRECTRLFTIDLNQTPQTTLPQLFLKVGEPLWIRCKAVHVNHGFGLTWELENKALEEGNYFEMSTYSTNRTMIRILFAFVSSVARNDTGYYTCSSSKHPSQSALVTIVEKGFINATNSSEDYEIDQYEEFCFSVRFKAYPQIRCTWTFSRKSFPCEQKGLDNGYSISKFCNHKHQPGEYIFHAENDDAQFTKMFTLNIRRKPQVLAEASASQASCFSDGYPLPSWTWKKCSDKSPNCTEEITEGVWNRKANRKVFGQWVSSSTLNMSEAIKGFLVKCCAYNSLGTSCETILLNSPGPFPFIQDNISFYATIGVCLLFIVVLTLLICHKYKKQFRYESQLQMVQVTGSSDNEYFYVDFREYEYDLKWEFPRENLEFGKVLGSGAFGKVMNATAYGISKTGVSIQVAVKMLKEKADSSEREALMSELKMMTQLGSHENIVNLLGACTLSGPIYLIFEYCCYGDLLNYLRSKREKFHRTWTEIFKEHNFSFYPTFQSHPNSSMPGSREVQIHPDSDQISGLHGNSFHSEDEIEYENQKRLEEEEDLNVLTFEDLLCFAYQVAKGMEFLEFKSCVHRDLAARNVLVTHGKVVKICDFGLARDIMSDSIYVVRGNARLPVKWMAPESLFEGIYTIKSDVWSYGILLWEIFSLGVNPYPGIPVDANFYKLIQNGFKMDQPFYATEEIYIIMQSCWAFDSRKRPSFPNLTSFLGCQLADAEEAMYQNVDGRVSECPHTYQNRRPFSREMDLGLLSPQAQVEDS", "assay": "Kd determination", "format": "binding"}, "FLT3": {"molecular_target": "T2, FLT3 (Homo sapiens, UniProt P36888)", "T2 sequence (P36888 27-993)": "T1 sequence (P36888 27-993 N841I) with I815N", "assay": "Kd determination", "format": "binding"}, "[1]": {"tested_on": "MOLM13^FLT3-ITD/D835Y cells", "assay": "MOLM13 cell viability", "format": "cell-based", "settings": "Homo sapiens, MOLM-13, 72 h, read-out: MOLM13^FLT3-ITD/D835Y IC50"}, "FLT3 (ITD, D835V)": {"molecular_target": "T3, FLT3 (ITD, D835V) (Homo sapiens, UniProt P36888, D835V/ITD)", "T3 sequence (P36888 564-993 D835V)": "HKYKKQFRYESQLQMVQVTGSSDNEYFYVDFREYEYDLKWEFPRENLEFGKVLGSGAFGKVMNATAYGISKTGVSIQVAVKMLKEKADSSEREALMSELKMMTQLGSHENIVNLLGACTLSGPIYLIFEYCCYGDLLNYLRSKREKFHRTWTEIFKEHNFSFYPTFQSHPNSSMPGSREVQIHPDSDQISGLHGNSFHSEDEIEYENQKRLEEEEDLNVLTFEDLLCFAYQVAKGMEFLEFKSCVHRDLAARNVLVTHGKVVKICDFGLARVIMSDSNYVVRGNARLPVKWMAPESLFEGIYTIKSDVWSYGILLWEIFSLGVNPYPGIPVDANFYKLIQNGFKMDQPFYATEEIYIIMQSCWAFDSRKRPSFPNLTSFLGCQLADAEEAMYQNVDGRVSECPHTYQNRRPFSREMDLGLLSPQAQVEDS", "assay": "Kd determination", "format": "binding"}, "MOLM13^FLT3-ITD cells": {"tested_on": "MOLM13^FLT3-ITD cells", "assay": "MOLM13 cell viability", "format": "cell-based", "settings": "Homo sapiens, MOLM-13, 72 h, read-out: MOLM13^FLT3-ITD IC50"}, "FLT3 (ITD, F691L)": {"molecular_target": "T4, FLT3 (ITD, F691L) (Homo sapiens, UniProt P36888, F691L/ITD)", "T4 sequence (P36888 564-993 F691L)": "T3 sequence (P36888 564-993 D835V) with F128L, V272D", "assay": "Kd determination", "format": "binding"}},
  "note": "Changes are numbered by the printed parent chain.",
  "data": [
    {"smiles": "CC(C)Nc1ccnc(Nc2cccc(-c3cccnc3)c2)n1", "note": "[Compound 5e, N^4-Isopropyl-N^2-(3-(pyridin-3-yl)phenyl)pyrimidine-2,4-diamine]", "values": [
      {"measurement": "Kd", "setting": "FLT3 (N841I)", "result": 11, "unit": "nM"},
      {"measurement": "Kd", "setting": "FLT3", "result": 3.6, "unit": "nM"},
      {"measurement": "fold more potent against FLT3 than PDGFRB and JAK1 JH2 domain (Kd)", "setting": "FLT3", "result": "approximately 8 fold"},
      {"measurement": "IC50", "setting": "[1]", "result": 82, "unit": "nM"},
      {"measurement": "Kd", "setting": "FLT3 (ITD, D835V)", "result": 0.36, "unit": "nM"},
      {"measurement": "IC50", "setting": "MOLM13^FLT3-ITD cells", "result": 136, "unit": "nM"},
      {"measurement": "Kd", "setting": "FLT3 (ITD, F691L)", "result": 11, "unit": "nM"}
    ]},
    {"smiles": "c1cncc(-c2cccc(Nc3nccc(NC4CCCCC4)n3)c2)c1", "note": "[Compound 1, N^4-Cyclohexyl-N^2-(3-(pyridin-3-yl)phenyl)pyrimidine-2,4-diamine]", "values": [
      {"measurement": "Kd", "setting": "FLT3 (N841I)", "result": 48, "unit": "nM"},
      {"measurement": "Kd", "setting": "FLT3", "result": 61, "unit": "nM"},
      {"measurement": "IC50", "setting": "[1]", "result": 1150, "unit": "nM"},
      {"measurement": "Kd", "setting": "FLT3 (ITD, D835V)", "result": 7.2, "unit": "nM"},
      {"measurement": "IC50", "setting": "MOLM13^FLT3-ITD cells", "result": 620, "unit": "nM"},
      {"measurement": "Kd", "setting": "FLT3 (ITD, F691L)", "result": 270, "unit": "nM"}
    ]},
    {"smiles": "CC(C)Nc1ccnc(Nc2ccccc2-c2ccccc2)n1", "note": "[Compound 6a, N^2-([1,1′-Biphenyl]-2-yl)-N^4-isopropylpyrimidine-2,4-diamine]", "values": [
      {"measurement": "Kd", "setting": "FLT3 (N841I)", "result": "> 10000", "unit": "nM"},
      {"measurement": "Kd", "setting": "FLT3", "result": "> 10000", "unit": "nM"},
      {"measurement": "IC50", "setting": "[1]", "result": 4260, "unit": "nM"},
      {"measurement": "Kd", "setting": "FLT3 (ITD, D835V)", "result": "> 10000", "unit": "nM"},
      {"measurement": "IC50", "setting": "MOLM13^FLT3-ITD cells", "result": "> 10000", "unit": "nM"},
      {"measurement": "Kd", "setting": "FLT3 (ITD, F691L)", "result": "> 10000", "unit": "nM"}
    ]}
  ]
}
